Results: US9561228B2 (Celgene Avilomics Research, Inc., priority 2013, dated 2017)

Key:
MEK1 activated ERK1 = target: T1, MEK1 activated ERK1 (Homo sapiens, UniProt P27361); test: Omnia continuous-read kinase assay for potency against MEK1 activated ERK1; type: biochemical; settings: MEK1 activated ERK1, ATP at KM; read-out: ERK1 Omnia WT ATP KM IC50
T1 construct: purchased Millipore (Billerica, Mass.) 14-439-K
Summary of the method: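 Apparent IC50 came from initial reaction slopes (RFU vs time) plotted against log inhibitor with a variable-slope fit. Reactions were started with ERK1 (4 nM final) added to 50 μM ATP, roughly at its appKM, and 10 μM Sox-conjugated ST17 peptide in 20 mM Tris pH 7.5, 5 mM MgCl2. Fluorescence was monitored every 71 seconds.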

[1] = system: ERK1/2 phosphorylation of p90RSK in HT29 cells; test: pRSK MSD Assay in HT29 cells; type: cell-based; settings: Homo sapiens, HT-29, read-out: ERK1/ERK2 PRSK MSD HT29 EC50
Summary of the method: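 Phospho-RSK level, read by electrochemiluminescence on RSK-antibody-coated MSD plates with a phospho-RSK/Sulfo-tag detection pair, reports cellular ERK1/2 activity. HT29 cells, kept overnight in 0.1% FBS medium, were exposed to compound for 120 min at 37° C before lysis.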

[2] = system: HT-29 cells (colorectal adenocarcinoma); test: Inhibition of cancer cell proliferation, HT-29 (CellTiterGlo, 72 hours); type: cell-based; settings: Homo sapiens
Experimental: Measurement of Inhibition of Cancer Cell Proliferation (HT-29/Colorectal Adenocarcinoma)
The following protocol used an HT-29 cell line, which cell line is a model for colorectal adenocarcinoma. HT-29 cells were split and 3000 cells in 100 μl of growth medium were added per well of a flat-bottom 96-well plate. A two-fold test compound solution in serum-free RPM1640 was made, starting at 5,000 nM. Then, 3-fold serial dilutions were made across the plate from well 1 to well 11. Well 12, the last well in a row on the plate, was left as untreated control. 100 μl compound solutions were then transferred to the wells, so the total volume of media was 200 μl per well. Plates were returned to a 37° C. incubator, and the cells were cultured for 72 hours. To measure cell proliferation after 72 hours, media was discarded from the plates, 50 μl/well of fresh medium was added, and 50 μl CellTiterGlo solution was added (Promega Cat#G7573). The plate was covered with a dark lid and incubated for 10 min. A white sealing tape was applied to the bottom of the plate, and the plate was read in a luminescence plate reader. […] A 2-fold serial dilution was used to generate 8 cell densities from 50,000-390 cells per well in 50 μl media. 50 μl CellTiterGlo was added per well, and the plate was read in a luminescence plate reader after 10 min. The reading was plotted vs. cell number to generate a standard curve and the equation of the curve fit. The compound-treated sample luminescence readings were converted to cell numbers using the curve-fit equation. The percent of inhibition, using untreated control as 100% growth, was then calculated. GI50 was then calculated by GraphPad Prism.

T1 sequence (P27361 whole entry): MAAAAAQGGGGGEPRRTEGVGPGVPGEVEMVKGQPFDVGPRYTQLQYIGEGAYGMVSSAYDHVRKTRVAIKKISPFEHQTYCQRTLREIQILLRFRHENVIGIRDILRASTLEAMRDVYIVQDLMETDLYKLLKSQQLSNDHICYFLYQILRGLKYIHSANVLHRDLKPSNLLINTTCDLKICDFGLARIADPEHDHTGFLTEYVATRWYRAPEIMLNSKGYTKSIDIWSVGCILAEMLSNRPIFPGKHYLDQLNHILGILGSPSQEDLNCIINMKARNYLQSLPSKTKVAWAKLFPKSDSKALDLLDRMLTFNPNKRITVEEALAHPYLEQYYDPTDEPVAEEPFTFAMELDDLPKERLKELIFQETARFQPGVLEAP

Compound C=CC(=O)Nc1ccccc1Nc1nc(N[C@H]2CCCNC2)ncc1Cl [Compound I-126, (S)—N-(2-((5-chloro-2-(piperidin-3-ylamino)pyrimidin-4-yl)amino)phenyl)acrylamide] has an IC50 (MEK1 activated ERK1) of 0.101 to 0.5 µM, an EC50 [1] of 0.501 to 0.999 µM and a GI50 [2] of 0.501 to 0.999 µM.

C=CC(=O)Nc1ccccc1Oc1nc(Nc2ccc(N3CCC[C@@H]3CO)cc2OC)ncc1C(N)=O [Compound I-263, (R)-4-(2-acrylamidophenoxy)-2-((4-(2-(hydroxymethyl)pyrrolidin-1-yl)-2-methoxyphenyl)amino)pyrimidine-5-carboxamide] was tested, and the IC50 (MEK1 activated ERK1) was 0.101 to 0.5 µM, the EC50 [1] was greater than 1 µM and the GI50 [2] was greater than 1 µM.

C=CC(=O)Nc1ccccc1Nc1nc(NC2CCN(C=O)CC2)ncc1C(F)(F)F [Compound I-11, N-(2-((2-((1-formylpiperidin-4-yl)amino)-5-(trifluoromethyl)pyrimidin-4-yl)amino)phenyl)acrylamide] gave an IC50 (MEK1 activated ERK1) of 0.101 to 0.5 µM, an EC50 [1] of 0.101 to 0.5 µM and a GI50 [2] of 0.101 to 0.5 µM.

C=CC(=O)Nc1ccccc1Nc1nc(NC2CCN(C(C)=O)CC2)ncc1C(F)(F)F [Compound I-12, N-(2-((2-((1-acetylpiperidin-4-yl)amino)-5-(trifluoromethyl)pyrimidin-4-yl)amino)phenyl)acrylamide] was tested, and the IC50 (MEK1 activated ERK1) was 0.101 to 0.5 µM, the EC50 [1] was 0.101 to 0.5 µM and the GI50 [2] was 0.101 to 0.5 µM.

Compound C=CC(=O)Nc1ccccc1Nc1nc(Nc2cc(C(N)=O)ccc2C)ncc1C [Compound I-224, 3-(4-(2-acrylamidophenylamino)-5-methylpyrimidin-2-ylamino)-4-methyl benzamide] has an IC50 (MEK1 activated ERK1) of 0.101 to 0.5 µM, an EC50 [1] of 0.101 to 0.5 µM and a GI50 [2] of 0.101 to 0.5 µM.

For C=CC(=O)Nc1ccccc1Nc1nc(Nc2ccc(N(CCN)C(C)=O)cc2OC)ncc1Cl [Compound I-168, N-(2-((2-((4-(N-(2-aminoethyl)acetamido)-2-methoxyphenyl)amino)-5-chloropyrimidin-4-yl)amino)phenyl)acrylamide], the IC50 (MEK1 activated ERK1) was 0.101 to 0.5 µM, the EC50 [1] was greater than 1 µM and the GI50 [2] was greater than 1 µM.

Work on C=CC(=O)Nc1ccccc1Nc1nc(Nc2ccc(N(CCCN)C(C)=O)cc2OC)ncc1Cl [Compound I-167, N-(2-((2-((4-(N-(3-aminopropyl)acetamido)-2-methoxyphenyl)amino)-5-chloropyrimidin-4-yl)amino)phenyl)acrylamide] yielded an IC50 (MEK1 activated ERK1) of 0.101 to 0.5 µM, an EC50 [1] greater than 1 µM and a GI50 [2] greater than 1 µM.

Compound C=CC(=O)Nc1cc(OC)ccc1Nc1nc(Nc2ccc(N3CCCN(C(=O)OC(C)(C)C)CC3)cc2C#N)ncc1Cl [Compound I-156, tert-butyl 4-(4-((4-((2-acrylamido-4-methoxyphenyl)amino)-5-chloropyrimidin-2-yl)amino)-3-cyanophenyl)-1,4-diazepane-1-carboxylate] has an IC50 (MEK1 activated ERK1) of 0.101 to 0.5 µM, an EC50 [1] of 0.501 to 0.999 µM and a GI50 [2] greater than 1 µM.

C=CC(=O)Nc1ccccc1Nc1nc(NC2CCN(C(C)=O)CC2)ncc1Cl [Compound I-116, N-(2-((2-((1-acetylpiperidin-4-yl)amino)-5-chloropyrimidin-4-yl)amino)phenyl)acrylamide] was tested, and the IC50 (MEK1 activated ERK1) was 0.101 to 0.5 µM, the EC50 [1] was 0.101 to 0.5 µM and the GI50 [2] was 0.101 to 0.5 µM.

With C=CC(=O)Nc1ccccc1Oc1nc(NC(C)(C)C)ncc1C(N)=O [Compound I-267, 4-(2-acrylamidophenoxy)-2-(tert-butylamino)pyrimidine-5-carboxamide] the IC50 (MEK1 activated ERK1) was 0.101 to 0.5 µM, the EC50 [1] was greater than 1 µM and the GI50 [2] was greater than 1 µM.

Work on C=CC(=O)Nc1ccccc1Nc1nc(Nc2ccc(N(CC)C(C)=O)cc2OC)ncc1Cl [Compound I-155, N-(2-((5-chloro-2-((4-(N-ethylacetamido)-2-methoxyphenyl)amino)pyrimidin-4-yl)amino)phenyl)acrylamide] yielded an IC50 (MEK1 activated ERK1) of 0.101 to 0.5 µM, an EC50 [1] greater than 1 µM and a GI50 [2] greater than 1 µM.

For C=CC(=O)Nc1ccccc1Nc1nc(Nc2ccc(NC(=O)COC(C)=O)cc2OC)ncc1Cl [Compound I-183, 2-((4-((4-((2-acrylamidophenyl)amino)-5-chloropyrimidin-2-yl)amino)-3-methoxyphenyl)amino)-2-oxoethyl acetate], the IC50 (MEK1 activated ERK1) was 0.101 to 0.5 µM, the EC50 [1] was 0.501 to 0.999 µM and the GI50 [2] was greater than 1 µM.

Work on C=CC(=O)Nc1ccccc1Nc1nc(Nc2ccc(F)cc2C)ncc1Cl [Compound I-209, N-(2-((5-chloro-2-((4-fluoro-2-methylphenyl)amino)pyrimidin-4-yl)amino)phenyl)acrylamide] yielded an IC50 (MEK1 activated ERK1) of 0.101 to 0.5 µM, an EC50 [1] of 0.101 to 0.5 µM and a GI50 [2] of 0.501 to 0.999 µM.

With C=CC(=O)Nc1ccccc1Nc1nc(N[C@@H]2CCC[C@H](C(=O)NOCCO)C2)ncc1Cl (racemic) [Compound I-103, Rac-3-((4-((2-acrylamidophenyl)amino)-5-chloropyrimidin-2-yl)amino)-N-(2-hydroxyethoxy)-cis-cyclohexanecarboxamide] the IC50 (MEK1 activated ERK1) was less than 0.1 µM, the EC50 [1] was 0.101 to 0.5 µM and the GI50 [2] was less than 0.1 µM.

C=CC(=O)Nc1ccccc1Nc1nc(N[C@H]2CCCN(C=O)C2)ncc1Cl [Compound I-122, (S)—N-(2-((5-chloro-2-((1-formylpiperidin-3-yl)amino)pyrimidin-4-yl)amino)phenyl)acrylamide] showed an IC50 (MEK1 activated ERK1) of less than 0.1 µM, an EC50 [1] of less than 0.1 µM and a GI50 [2] of 0.101 to 0.5 µM.

C=CC(=O)Nc1cc(OC)ccc1Nc1nc(Nc2ccc(N(CC)C(C)=O)cc2C#N)ncc1Cl [Compound I-164, N-(2-((5-chloro-2-((2-cyano-4-(N-ethylacetamido)phenyl)amino)pyrimidin-4-yl)amino)-5-methoxyphenyl)acrylamide] was tested, and the IC50 (MEK1 activated ERK1) was 0.101 to 0.5 µM, the EC50 [1] was greater than 1 µM and the GI50 [2] was greater than 1 µM.

C=CC(=O)Nc1ccccc1Nc1nc(NC2CCN(S(C)(=O)=O)CC2)ncc1Cl [Compound I-117, N-(2-((5-chloro-2-((1-(methylsulfonyl)piperidin-4-yl)amino)pyrimidin-4-yl)amino)phenyl)acrylamide] showed an IC50 (MEK1 activated ERK1) of 0.101 to 0.5 µM, an EC50 [1] of 0.101 to 0.5 µM and a GI50 [2] of 0.101 to 0.5 µM.

Compound C=CC(=O)Nc1ccccc1Nc1nc(Nc2ccc(NC(=O)CCCC(=O)NCCCOCCOCCOCCCNC(=O)CCCC[C@H]3SC[C@H]4NC(=O)N[C@H]43)cc2OC)ncc1Cl [Compound I-301, N^1-(4-((4-((2-acrylamidophenyl)amino)-5-chloropyrimidin-2-yl)amino)-3-methoxyphenyl)-N^5-(15-oxo-19-((3aR,4R,6aS)-2-oxohexahydro-1H-thieno[3,4-d]imidazol-4-yl)-4,7,10-trioxa-14-azanonadecyl)glutaramide] has an IC50 (MEK1 activated ERK1) of 0.501 to 0.999 µM, an EC50 [1] greater than 1 µM and a GI50 [2] greater than 1 µM.

C=CC(=O)Nc1ccccc1Nc1nc(Nc2ccc(N3CCC[C@@H]3C(N)=O)cc2C#N)ncc1Cl [Compound I-179, (R)-1-(4-((4-((2-acrylamidophenyl)amino)-5-chloropyrimidin-2-yl)amino)-3-cyanophenyl)pyrrolidine-2-carboxamide] was tested, and the IC50 (MEK1 activated ERK1) was 0.101 to 0.5 µM, the EC50 [1] was 0.501 to 0.999 µM and the GI50 [2] was greater than 1 µM.

In the case of C=CC(=O)Nc1ccccc1Nc1nc(Nc2cc(C(=O)NOCCO)ccc2OC)ncc1C(F)(F)F [Compound I-74, 3-((4-((2-Acrylamidophenyl)amino)-5-(trifluoromethyl)pyrimidin-2-yl)amino)-N-(2-hydroxyethoxy)-4-methoxybenzamide], the IC50 (MEK1 activated ERK1) is reported as 0.101 to 0.5 µM, the EC50 [1] is reported as 0.501 to 0.999 µM and the GI50 [2] is reported as 0.101 to 0.5 µM.

In the case of C=CC(=O)Nc1ccccc1Nc1nc(Nc2ccc(NC(=O)CO)cc2OC)ncc1Cl [Compound I-186, N-(2-((5-chloro-2-((4-(2-hydroxyacetamido)-2-methoxyphenyl)amino)pyrimidin-4-yl)amino)phenyl)acrylamide], the IC50 (MEK1 activated ERK1) is reported as 0.101 to 0.5 µM, the EC50 [1] is reported as 0.501 to 0.999 µM and the GI50 [2] is reported as greater than 1 µM.

Compound C=CC(=O)Nc1ccccc1Nc1nc(Nc2ccc(NS(C)(=O)=O)cc2OC)ncc1Cl [Compound I-185, N-(2-((5-chloro-2-((2-methoxy-4-(methylsulfonamido)phenyl)amino)pyrimidin-4-yl)amino)phenyl)acrylamide] has an IC50 (MEK1 activated ERK1) of 0.101 to 0.5 µM, an EC50 [1] of 0.101 to 0.5 µM and a GI50 [2] of 0.501 to 0.999 µM.

Compound C=CC(=O)Nc1ccccc1Nc1nc(Nc2cc(C(N)=O)c(OCCCNC(=O)CCCC(=O)NCCCOCCOCCOCCCNC(=O)CCCC[C@@H]3SC[C@@H]4NC(=O)N[C@@H]43)cc2C)ncc1Cl [Compound I-299, N^1-(3-(4-((4-((2-acrylamidophenyl)amino)-5-chloropyrimidin-2-yl)amino)-2-carbamoyl-5-methylphenoxy)propyl)-N^5-(15-oxo-19-((3aS,4S,6aR)-2-oxohexahydro-1H-thieno[3,4-d]imidazol-4-yl)-4,7,10-trioxa-14-azanonadecyl)glutaramide] has an IC50 (MEK1 activated ERK1) of 0.101 to 0.5 µM, an EC50 [1] greater than 1 µM and a GI50 [2] greater than 1 µM.
